Literature values in EP1688139A1 (Board of Regents of the University of Nebraska, priority 2000, dated 2002).

Tested on: 3-nitropropionic acid
Details: rats, diet supplemented with creatine for 2 weeks, exposed to 3-nitropropionic acid

N-aminoiminomethyl-N-methylglycine [Creatine]
less lesion volume than nonsupplemented animals: 83%
